This assay concerns C57BL/6J mice with intra-mPFC endoNF injection. Nature of the assay: Novel object recognition test before and after intra-mPFC endoNF injection. It counts as in vivo, mouse. The note with it: 30 min before encoding; sarcosine 600 mg/kg i.p. (d2); DP12 (d5) and DP1 (d6) 1 mg/kg intranasally. As to the method:
Guide cannulas were fabricated using stainless steel tubing with outer/inner diameter Ø 0.711/0.483 mm (Science Products, Germany). Dummy cannulas were made from entomological pins, size 2, Ø 0.41 mm (FST, Germany). Chronic implantation of cannulas into the mPFC in mice was performed as described previously for intrahippocampal injections (Kochlamazashvili et al., 2012; Senkov et al., 2015; Senkov et al., 2006).
Acute injection of endoNF in vivo was done under a short isoflurane anesthesia. For intra-mPFC injection, we used a digitally controlled infusion system (UltraMicroPump, UMP3, and Micro4 Controller, WPI, USA) fed with a 10 μl-Hamilton syringe and NanoFil 135 μm (35 GA) beveled needle. The thin (135 μm) part of the needle went into the mouse brain during injection, whereas its thick part (430 μm) fit perfectly in the guide cannula (inside 483 μm). Injections were performed as follows: 1) a mouse was anesthetized with 1-3% isoflurane as during implantation; 2) it was put into the stereotaxic frame; 3) the dummy cannula was gently removed from the left guide cannula; 4) a NanoFil injecting needle was carefully placed inside of the guide cannula and advanced further down until reaching the marker (made with a permanent pen at the needle shank (430 μm) to visualize the point when the needle should reach the surface of the brain coming out of the guide cannula (equal to the length of guide cannula); 5) once the marker was reached, a slow (10 μm increment) step dial was used to deepen the needle into the brain; 6) endoNF (2 μg/μl) or vehicle was injected with the following settings: 250 nl per site as deep as 1.5 and 2.25 mm from the brain surface (total injection volume per hemisphere 500 nl, injection rate of 3 nl/s); 7) after injection was complete (˜5 min), the needle was left in the injection site for another 5 min and then gently removed; 8) the dummy cannula was then put back to its place; 9) the same procedure was performed for the right hemisphere. The whole injection process took approximately 20-25 min under isoflurane anesthesia, and the mice recovered rather quickly, starting to move in approximately 2-3 min after being returned to their home cages. Complete recovery of a mouse after such short anesthesia usually occurs within 3-5 min. After injection, mice were returned to their animal facility. Behavior experiments started on the day after injection at approximately the same time, so that we could perform cognitive tests 24 hours after injection.
A white open field arena (50×50×30 cm) was used in the novel object recognition task. All behavior was video recorded and analyzed automatically by software (ANY-maze, version 4.99, Stoelting Co., Wood Dale, Ill.). […]

For (α(2→8)Neu5Ac)12 [DP12], the “novel object recognition after intra-mPFC endoNF injection” value is given as “significantly improved novel object recognition”.

The record behind these values is US20210301038A1, “POLYSIALIC ACID AND DERIVATIVES THEREOF, PHARMACEUTICAL COMPOSITION AND METHOD OF PRODUCING POLYSIALIC ACID” (Medizinische Hochschule Hannover (MHH), priority 2018, published 2021).
